Values of other authors in patent publication US20070166344A1, “Non-leaching surface-active film compositions for microbial adhesion prevention” (priority 2006, published 2007).

Conditions: organism not given

For Benzalkonium chloride, the MIC level is given as “about 7.5 ppm”.
